Source: patent US11505558B1, “Antiviral heterocyclic compounds” (Enanta Pharmaceuticals, Inc., priority 2019, dated 2022)

Each molecule was assayed on genotype A, "Long" strain RSV (assay: RSV-A assay (CPE, ATPlite readout in Hep-2 cells)). Details: human respiratory syncytial virus, HEp-2, Hep-2 cells, genotype A "Long" strain RSV, MOI 0.1; read-out: Human RSV-A (“Long” strain) EC50.
Type: cell-based
Description: Hep-2 cells, (originally derived from tumors grown in irradiated-cortisonised weanling rats that had been injected with epidermoid carcinoma tissue from a person's larynx, but later found to be indistinguishable from HeLa cells by PCR DNA analysis), were used for the culturing of genotype A, “Long” strain RSV. Flasks were inoculated with RSV and viral stocks were collected once cytopathic effect (CPE) was greater than […]. Viral stocks in […] sucrose media were snap frozen using liquid nitrogen to increase viral stability. Viral stock titers were quantified by tissue culture infectious dose 50% (TCID50) using 8,000 cells per well and 3-fold viral dilutions across a 96-well plate, cultured for 4 days. Viral stock titers were also quantified by a plaque forming unit assay, as described elsewhere.
Following extensive parameter testing, the final assay is run as follows: Hep-2 cells are seeded into the inner 60 wells of a 96-well plate at 8,000 cells per well in a volume of 50 μL using Growth Media (DMEM without phenol red, 1% L-Glut, 1% Penn/Strep, 1% nonessential amino acids, 10% heat-inactivated FBS). 2-fold serial dilutions of control and test compounds are added to the wells in duplicate in a total volume of 25 μL. Viral stock is then added to the wells at a multiplicity of infection (MOI) of 0.1 in a volume of 25 μL, bringing the total volume of each well to 100 μL. The MOI is calculated using the PFU/mL, or TCID50 if unavailable. Each 96-well plate has a control column of 6 wells with cells and virus but no compound (negative control, max CPE), a column with cells but no compound or virus (positive control, minimum CPE), and a column with no cells or virus or compound (background plate/reagent control). The control wells with cells but no virus are given an additional 25 μL of growth media containing an equal quantity of sucrose as those wells receiving the viral stock in order to keep consistent in media and volume conditions. The outer wells of the plate are filled with 125 μL of moat media (DMEM, 1% Penn/Strep) to act as a thermal and evaporative moat around the test wells. Following a 5-day incubation period, the plates are read using ATPlite (50 uL added per well), which quantifies the amount of ATP (a measure of cell health) present in each well. Assay plates are read using the Envision luminometer. […] EC50 ranges are as follows: A<0.2 μM; B>0.2 μM.
In the case of `C[C@@H](O)COc1ccc(C(=O)NC[C@](O)(c2cc3c(c(-c4ccc(F)cc4)n2)OC[C@]3(C)C(N)=O)C(F)(F)F)cc1-c1cncnc1` [Example 203], the EC50 is reported as over 200 nM. `C[C@]1(C(N)=O)COc2c1cc([C@@](O)(CNC(=O)c1ccc(C#N)c(F)c1)C(F)(F)F)nc2-c1ccc(F)cc1` [Example 320] was tested, and the EC50 was over 200 nM. For `CC(C)(O)CCNC(=O)[C@@]1(C)COc2c1cc([C@@](O)(CNC(=O)c1cc(OC3CC3)c3ncccc3c1)C(F)(F)F)nc2-c1ccc(F)cc1` [Example 483], the EC50 was under 200 nM. Molecule `C[C@]1(C(N)=O)COc2c1cc([C@@](O)(CNC(=O)c1ccc3nc(N)sc3c1)C1CC1)nc2-c1ccc(F)cc1` [Example 441] has an EC50 of under 200 nM. `COc1cccc(CC(=O)NC[C@](O)(c2cc3c(c(-c4ccc(F)cc4)n2)OC[C@]3(C)C(N)=O)C(F)(F)F)c1` [Example 594] was tested, and the EC50 was over 200 nM. In the case of `COc1cc(C(=O)NC[C@](O)(c2cc3c(c(-c4ccc(F)cc4)n2)OC[C@]3(C)C(=O)NCC(C)(C)O)C(F)(F)F)cc2sc(N)nc12` [Example 502], the EC50 is reported as under 200 nM. Molecule `C[C@]1(C(N)=O)COc2c1cc([C@@](O)(CNC(=O)c1ccc3ncccc3c1Cl)C(F)(F)F)nc2-c1ccc(F)cc1` [Example 240] has an EC50 of over 200 nM. `C[C@]1(C(N)=O)COc2c1cc([C@@](O)(CNC(=O)c1ccc(-c3ccc(=O)[nH]c3)c(OC3CC3)c1)C(F)(F)F)nc2-c1ccc(F)cc1` [Example 169] was tested, and the EC50 was over 200 nM. In the case of `CN(C)c1nc2ccc(C(=O)NC[C@](O)(c3cc4c(c(-c5ccc(F)cc5)n3)OC[C@]4(C)C(N)=O)C(F)(F)F)cc2s1` [Example 438], the EC50 is reported as under 200 nM. For `C[C@]1(C(N)=O)COc2c1cc([C@@](O)(CNC(=O)c1ccc3ncncc3c1)C(F)(F)F)nc2-c1ccc(F)cc1` [Example 248], the EC50 was under 200 nM. `COc1cc(C(=O)NC[C@](O)(c2cc3c(c(-c4ccc(F)cc4)n2)OC[C@]3(C)C(N)=O)C(F)(F)F)cc2cc3c(nc12)CCCC3` [Example 612] was tested, and the EC50 was under 200 nM. Work on `Cc1cc(C)nc(Nc2cc(C(=O)NC[C@](O)(c3cc4c(c(-c5ccc(F)cc5)n3)OC[C@]4(C)C(N)=O)C(F)(F)F)cc3cccnc23)n1` [Example 344] yielded an EC50 of under 200 nM. `C[C@]1(C(N)=O)COc2c1cc([C@@](O)(CNC(=O)c1cc(-c3ncccn3)c3ncccc3c1)C(F)(F)F)nc2-c1ccc(F)cc1` [Example 354] was tested, and the EC50 was over 200 nM. `C[C@]1(C(=O)NCCC2(O)CC2)COc2c1cc([C@@](O)(CNC(=O)c1cc(OC3CC3)c3ncccc3c1)C(F)(F)F)nc2-c1ccc(F)cc1` [Example 491] was tested, and the EC50 was under 200 nM. Work on `Cc1noc(C)c1-c1ccc(C(=O)NC[C@](O)(c2cc3c(c(-c4ccc(F)cc4)n2)OC[C@]3(C)C(N)=O)C(F)(F)F)cc1OC1CC1` [Example 172] yielded an EC50 of over 200 nM. Molecule `C[C@]1(C(N)=O)COc2c1cc([C@@](O)(CNC(=O)c1ccc(-c3ccccn3)c(OC3CC3)c1)C(F)(F)F)nc2-c1ccc(F)cc1` [Example 155] has an EC50 of over 200 nM. Molecule `C[C@]1(C(N)=O)COc2c1cc([C@@](O)(CNC(=O)c1ccc3nc[nH]c3c1)C(F)(F)F)nc2-c1ccc(F)cc1` [Example 291] has an EC50 of under 200 nM. With `C[C@]1(C(N)=O)COc2c1cc([C@@](O)(CNC(=O)c1ccc(-c3cnccc3C(F)(F)F)c(OC3CC3)c1)C(F)(F)F)nc2-c1ccc(F)cc1` [Example 149] the EC50 was over 200 nM. With `COc1cc(C(=O)NC[C@](O)(c2cc3c(c(-c4ccc(F)c(C)c4)n2)OC[C@]3(C)C(=O)NCC(C)(C)O)C(F)(F)F)cc2cc(C)cnc12` [Example 503] the EC50 was under 200 nM. Molecule `C[C@]1(C(N)=O)COc2c1cc([C@@](O)(CNC(=O)c1ccc(-c3ccncn3)c(OC3CC3)c1)C(F)(F)F)nc2-c1ccc(F)cc1` [Example 170] has an EC50 of over 200 nM. With `C[C@]1(C(N)=O)COc2c1cc([C@@](O)(CNC(=O)c1cc(NS(=O)(=O)C3CC3)c3ncccc3c1)C(F)(F)F)nc2-c1ccc(F)cc1` [Example 395] the EC50 was over 200 nM. `C[C@]1(C(N)=O)COc2c1cc([C@@](O)(CNC(=O)c1ccnc(C(F)(F)F)n1)C(F)(F)F)nc2-c1ccc(F)cc1` [Example 301] showed an EC50 of over 200 nM. In the case of `Cn1ncc2ccc(C(=O)NC[C@](O)(c3cc4c(c(-c5ccc(F)cc5)n3)OC[C@]4(C)C(N)=O)C(F)(F)F)cc21` [Example 300], the EC50 is reported as under 200 nM. `C[C@]1(C(N)=O)COc2c1cc([C@@](O)(CNC(=O)c1cc(OC(F)F)c3ncccc3c1)C(F)(F)F)nc2-c1ccc(F)cc1` [Example 59] gave an EC50 of under 200 nM. In the case of `C[C@]1(C(N)=O)COc2c1cc([C@@](O)(CNC(=O)c1ccc3nc(NC4CC4)sc3c1)C(F)(F)F)nc2-c1ccc(F)cc1` [Example 440], the EC50 is reported as under 200 nM. `Cc1cnc2c(NC(=O)NNC3CC3)cc(C(=O)NC[C@](O)(c3cc4c(c(-c5ccc(F)cc5)n3)OC[C@]4(C)C(N)=O)C(F)(F)F)cc2c1` [Example 631] was tested, and the EC50 was under 200 nM. Work on `Cc1cnc(-c2cc(C(=O)NC[C@](O)(c3cc4c(c(-c5ccc(F)cc5)n3)OC[C@]4(C)C(N)=O)C(F)(F)F)ccc2OC2CC2)cn1` [Example 115] yielded an EC50 of under 200 nM. Work on `CNC(=O)CCNC(=O)[C@@]1(C)COc2c1cc([C@@](O)(CNC(=O)c1cc(OC3CC3)c3ncccc3c1)C(F)(F)F)nc2-c1ccc(F)cc1` [Example 474] yielded an EC50 of under 200 nM. Molecule `Cc1cc(-c2cc(C(=O)NC[C@](O)(c3cc4c(c(-c5ccc(F)cc5)n3)OC[C@]4(C)C(N)=O)C(F)(F)F)ccc2OC2CC2)ccn1` [Example 120] has an EC50 of under 200 nM. Molecule `COc1cc(C(=O)NC[C@](O)(c2cc3c(c(-c4ccc(F)cc4)n2)OC[C@]3(C)C(N)=O)C(F)(F)F)ccc1OCCO` [Example 11] has an EC50 of under 200 nM. With `COc1cc(C(=O)NC[C@](O)(c2cc3c(c(-c4ccc(F)cc4)n2)OC[C@]3(C)C(N)=O)C(F)(F)F)ccc1-c1cnoc1C` [Example 185] the EC50 was under 200 nM. With `C[C@]1(C(=O)N2CCC(C#N)C2)COc2c1cc([C@@](O)(CNC(=O)c1cc(OC3CC3)c3ncccc3c1)C(F)(F)F)nc2-c1ccc(F)cc1` (stereo partly drawn) [Example 555] the EC50 was under 200 nM. For `CNC(=O)NCCNC(=O)[C@@]1(C)COc2c1cc([C@@](O)(CNC(=O)c1cc(OC3CC3)c3ncccc3c1)C(F)(F)F)nc2-c1ccc(F)cc1` [Example 461], the EC50 was over 200 nM. For `Cc1cnc2c(NC(=O)Nc3cccnc3)cc(C(=O)NC[C@](O)(c3cc4c(c(-c5ccc(F)cc5)n3)OC[C@]4(C)C(N)=O)C(F)(F)F)cc2c1` [Example 625], the EC50 was under 200 nM. Work on `C[C@]1(C(N)=O)COc2c1cc([C@@](O)(CNC(=O)c1cc(NC(=O)C3CC3)c3ncccc3c1)C(F)(F)F)nc2-c1ccc(F)cc1` [Example 392] yielded an EC50 of under 200 nM. Work on `C[C@@H](O)COc1ccc(C(=O)NC[C@](C)(O)c2cc3c(c(-c4ccc(F)cc4)n2)OC[C@]3(C)C(N)=O)cc1OC1CC1` [Example 267] yielded an EC50 of under 200 nM. For `C[C@]1(C(N)=O)COc2c1cc([C@@](O)(CNC(=O)c1cc3cncnc3[nH]1)C(F)(F)F)nc2-c1ccc(F)cc1` [Example 292], the EC50 was over 200 nM. `C[C@]1(C(N)=O)COc2c1cc([C@@](O)(CNC(=O)c1cc(Nc3ncc(F)cn3)c3ncccc3c1)C(F)(F)F)nc2-c1ccc(F)cc1` [Example 349] showed an EC50 of under 200 nM. For `Cc1cnc2c(NC(=O)c3ncc(C)o3)cc(C(=O)NC[C@](O)(c3cc4c(c(-c5ccc(F)cc5)n3)OC[C@]4(C)C(N)=O)C(F)(F)F)cc2c1` [Example 630], the EC50 was under 200 nM. Molecule `CC1(NC(=O)COc2cc(C(=O)NC[C@](O)(c3cc4c(c(-c5ccc(F)cc5)n3)OC[C@]4(C)C(N)=O)C(F)(F)F)cc3cccnc23)CC1` [Example 370] has an EC50 of over 200 nM. Molecule `COc1cc(C(=O)NC[C@](O)(c2cc3c(c(-c4ccc(F)cc4)n2)OC[C@]3(C)CNC2CC2)C(F)(F)F)cc2cccnc12` [Example 23] has an EC50 of under 200 nM. In the case of `CC(C)(O)CNC(=O)[C@@]1(C)COc2c1cc([C@@](O)(CNC(=O)c1ccc3nc(N)oc3c1)C(F)(F)F)nc2-c1ccc(F)cc1` [Example 498], the EC50 is reported as under 200 nM. Work on `Cc1cnc2c(OCC(N)=O)cc(C(=O)NC[C@](O)(c3cc4c(c(-c5ccc(F)c(Cl)c5)n3)OC[C@]4(C)C(N)=O)C(F)(F)F)cc2c1` [Example 367] yielded an EC50 of under 200 nM. `Cc1cnc2c(NC(=O)C(F)(F)F)cc(C(=O)NC[C@](O)(c3cc4c(c(-c5ccc(F)cc5)n3)OC[C@]4(C)C(N)=O)C(F)(F)F)cc2c1` [Example 554] was tested, and the EC50 was under 200 nM. Molecule `C[C@]1(C(N)=O)COc2c1cc([C@@](O)(CNC(=O)c1ccc3ncccc3n1)C(F)(F)F)nc2-c1ccc(F)cc1` [Example 238] has an EC50 of over 200 nM. `C[C@]1(C(N)=O)COc2c1cc([C@@](O)(CNC(=O)c1ccc3ncc(=O)[nH]c3c1)C(F)(F)F)nc2-c1ccc(F)cc1` [Example 327] was tested, and the EC50 was over 200 nM. For `COc1cc(C(=O)NC[C@](O)(c2cc3c(c(-c4ccc(F)cc4)n2)OC[C@]3(C)C(N)=O)C(F)(F)F)cc2cccnc12` [Example 28], the EC50 was under 200 nM. `C[C@]1(C(N)=O)COc2c1cc([C@@](O)(CNC(=O)c1cc(OCCN)c3ncccc3c1)C(F)(F)F)nc2-c1ccc(F)cc1` [Example 356] showed an EC50 of over 200 nM.
